Test results: ChEMBL document CHEMBL1201862, “PubChem BioAssay data set” (2004)
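Values below derive from 48-hour exposures of cells grown in 96-well plates, with endpoints linearly interpolated between the two concentrations bracketing the appropriate inhibition level. At the GI50, growth is halved.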 Activity calls are given as the source filed them. No stated cut-off is given here; in the data, active = GI50 up to about 1.1 µM and inactive = higher.

Assays:
Experiment in all cases: inhibition of tumour cell growth, NCI panel, 48 h
786-0 = system: 786-0
A498 = system: A498
A549 = system: A549
ACHN = system: ACHN
BT-549 = system: BT-549
CAKI-1 = system: CAKI-1
CCRF-CEM = system: CCRF-CEM
COLO 205 = system: COLO 205
DU-145 = system: DU-145
EKVX = system: EKVX
HCC 2998 = system: HCC 2998
HCT-116 = system: HCT-116
HCT-15 = system: HCT-15
HL-60 = system: HL-60
HOP-62 = system: HOP-62
HOP-92 = system: HOP-92
HT-29 = system: HT-29
Hs-578T = system: Hs-578T
IGROV-1 = system: IGROV-1
K562 = system: K562
KM12 = system: KM12
M14 = system: M14
MCF7 = system: MCF7
MDA-MB-231 = system: MDA-MB-231
MDA-MB-435 = system: MDA-MB-435
MDA-N = system: MDA-N
MOLT-4 = system: MOLT-4
Malme-3M = system: Malme-3M
NCI-H226 = system: NCI-H226
NCI-H23 = system: NCI-H23
NCI-H460 = system: NCI-H460
NCI-H522 = system: NCI-H522
NCI/ADR-RES = system: NCI/ADR-RES
OVCAR-3 = system: OVCAR-3
OVCAR-4 = system: OVCAR-4
OVCAR-5 = system: OVCAR-5
OVCAR-8 = system: OVCAR-8
PC-3 = system: PC-3
RPMI-8226 = system: RPMI-8226
RXF 393 = system: RXF 393
SF-268 = system: SF-268
SF-295 = system: SF-295
SF-539 = system: SF-539
SK-MEL-28 = system: SK-MEL-28
SK-MEL-2 = system: SK-MEL-2
SK-MEL-5 = system: SK-MEL-5
SK-OV-3 = system: SK-OV-3
SN12C = system: SN12C
SNB-19 = system: SNB-19
SNB-75 = system: SNB-75
SR = system: SR
SW-620 = system: SW-620
T47D = system: T47D
TK-10 = system: TK-10
U-251 = system: U-251
UACC-257 = system: UACC-257
UACC-62 = system: UACC-62
UO-31 = system: UO-31
LOX IMVI = system: LOX IMVI

## CC(=O)Oc1c(C)c2c(c3ccccc13)OC(C)(C)C2
786-0
  GI50: 15.3 µM (inactive)
A498
  GI50: 20.9 µM (inactive)
A549
  GI50: 18.1 µM (inactive)
ACHN
  GI50: 17.3 µM (inactive)
BT-549
  GI50: 24.7 µM (inactive)
CAKI-1
  GI50: 24.2 µM (inactive)
CCRF-CEM
  GI50: 24.7 µM (inactive)
COLO 205
  GI50: 20.3 µM (inactive)
DU-145
  GI50: 17.3 µM (inactive)
EKVX
  GI50: 19.8 µM (inactive)
HCC 2998
  GI50: 16.5 µM (inactive)
HCT-116
  GI50: 18 µM (inactive)
HCT-15
  GI50: 17 µM
HL-60
  GI50: 22.4 µM (inactive)
HOP-62
  GI50: 20.1 µM (inactive)
HOP-92
  GI50: 17.8 µM (inactive)
HT-29
  GI50: 18.1 µM (inactive)
Hs-578T
  GI50: 21 µM (inactive)
IGROV-1
  GI50: 17.2 µM (inactive)
K562
  GI50: 29.2 µM (inactive)
KM12
  GI50: 14.5 µM (inactive)
M14
  GI50: 16.4 µM (inactive)
MCF7
  GI50: 17.5 µM (inactive)
MDA-MB-231
  GI50: 23.9 µM (inactive)
MDA-MB-435
  GI50: 17.2 µM (inactive)
MDA-N
  GI50: 12 µM (inactive)
MOLT-4
  GI50: 15.1 µM (inactive)
Malme-3M
  GI50: 16.3 µM (inactive)
NCI-H226
  GI50: 22 µM (inactive)
NCI-H23
  GI50: 14 µM (inactive)
NCI-H460
  GI50: 19.2 µM (inactive)
NCI-H522
  GI50: 18.4 µM (inactive)
NCI/ADR-RES
  GI50: 21 µM (inactive)
OVCAR-3
  GI50: 22.5 µM (inactive)
OVCAR-4
  GI50: 16.1 µM (inactive)
OVCAR-5
  GI50: 19.5 µM (inactive)
OVCAR-8
  GI50: 16.8 µM (inactive)
PC-3
  GI50: 22.6 µM (inactive)
RPMI-8226
  GI50: 15.7 µM (inactive)
RXF 393
  GI50: 20.7 µM (inactive)
SF-268
  GI50: 15.5 µM (inactive)
SF-295
  GI50: 17 µM (inactive)
SF-539
  GI50: 20.4 µM (inactive)
SK-MEL-28
  GI50: 18.8 µM (inactive)
SK-MEL-2
  GI50: 18 µM (inactive)
SK-MEL-5
  GI50: 10.5 µM (inactive)
SK-OV-3
  GI50: 30.5 µM (inactive)
SN12C
  GI50: 18.6 µM (inactive)
SNB-19
  GI50: 26.3 µM (inactive)
SNB-75
  GI50: 19 µM (inactive)
SR
  GI50: 17.7 µM (inactive)
SW-620
  GI50: 19.8 µM (inactive)
T47D
  GI50: 20.3 µM (inactive)
TK-10
  GI50: 18.6 µM (inactive)
U-251
  GI50: 18.6 µM (inactive)
UACC-257
  GI50: 12.2 µM (inactive)
UACC-62
  GI50: 16.3 µM (inactive)
UO-31
  GI50: 18.2 µM (inactive)

## CCOC(=O)/C=C/CCO[Si](C)(C)C(C)(C)C
786-0
  GI50: > 100 µM (inactive)
A498
  GI50: > 100 µM (inactive)
A549
  GI50: > 100 µM (inactive)
ACHN
  GI50: > 100 µM (inactive)
BT-549
  GI50: > 100 µM (inactive)
CAKI-1
  GI50: > 100 µM (inactive)
CCRF-CEM
  GI50: > 100 µM (inactive)
COLO 205
  GI50: > 100 µM (inactive)
DU-145
  GI50: > 100 µM (inactive)
EKVX
  GI50: > 100 µM (inactive)
HCC 2998
  GI50: > 100 µM (inactive)
HCT-116
  GI50: > 100 µM (inactive)
HCT-15
  GI50: > 100 µM
HOP-62
  GI50: > 100 µM (inactive)
HOP-92
  GI50: > 100 µM (inactive)
HT-29
  GI50: > 100 µM (inactive)
Hs-578T
  GI50: > 100 µM (inactive)
IGROV-1
  GI50: > 100 µM (inactive)
K562
  GI50: > 100 µM (inactive)
KM12
  GI50: > 100 µM (inactive)
LOX IMVI
  GI50: 50.5 µM (inactive)
MCF7
  GI50: 97.5 µM (inactive)
MDA-MB-231
  GI50: > 100 µM (inactive)
MDA-MB-435
  GI50: > 100 µM (inactive)
MDA-N
  GI50: > 100 µM (inactive)
MOLT-4
  GI50: > 100 µM (inactive)
Malme-3M
  GI50: > 100 µM (inactive)
NCI-H226
  GI50: > 100 µM (inactive)
NCI-H23
  GI50: > 100 µM (inactive)
NCI-H460
  GI50: > 100 µM (inactive)
NCI-H522
  GI50: > 100 µM (inactive)
NCI/ADR-RES
  GI50: > 100 µM (inactive)
OVCAR-3
  GI50: > 100 µM (inactive)
OVCAR-4
  GI50: > 100 µM (inactive)
OVCAR-5
  GI50: > 100 µM (inactive)
OVCAR-8
  GI50: > 100 µM (inactive)
PC-3
  GI50: > 100 µM (inactive)
RPMI-8226
  GI50: > 100 µM (inactive)
RXF 393
  GI50: > 100 µM (inactive)
SF-268
  GI50: > 100 µM (inactive)
SF-295
  GI50: > 100 µM (inactive)
SF-539
  GI50: > 100 µM (inactive)
SK-MEL-28
  GI50: > 100 µM (inactive)
SK-MEL-2
  GI50: > 100 µM (inactive)
SK-MEL-5
  GI50: > 100 µM (inactive)
SK-OV-3
  GI50: > 100 µM (inactive)
SN12C
  GI50: > 100 µM (inactive)
SNB-19
  GI50: > 100 µM (inactive)
SNB-75
  GI50: 82.8 µM (inactive)
SR
  GI50: > 100 µM (inactive)
SW-620
  GI50: > 100 µM (inactive)
T47D
  GI50: > 100 µM (inactive)
TK-10
  GI50: > 100 µM (inactive)
U-251
  GI50: > 100 µM (inactive)
UACC-257
  GI50: > 100 µM (inactive)
UACC-62
  GI50: > 100 µM (inactive)
UO-31
  GI50: > 100 µM (inactive)
